This is an account of results in publication PMC10669046, “Probing the Proton-Gated ASIC Channels Using Tetraalkylammonium Ions” (Biomolecules, 2023).

Assay [1] addresses T1, ASIC3 (Rattus norvegicus, UniProt O35240).
T1 sequence (O35240 1-533): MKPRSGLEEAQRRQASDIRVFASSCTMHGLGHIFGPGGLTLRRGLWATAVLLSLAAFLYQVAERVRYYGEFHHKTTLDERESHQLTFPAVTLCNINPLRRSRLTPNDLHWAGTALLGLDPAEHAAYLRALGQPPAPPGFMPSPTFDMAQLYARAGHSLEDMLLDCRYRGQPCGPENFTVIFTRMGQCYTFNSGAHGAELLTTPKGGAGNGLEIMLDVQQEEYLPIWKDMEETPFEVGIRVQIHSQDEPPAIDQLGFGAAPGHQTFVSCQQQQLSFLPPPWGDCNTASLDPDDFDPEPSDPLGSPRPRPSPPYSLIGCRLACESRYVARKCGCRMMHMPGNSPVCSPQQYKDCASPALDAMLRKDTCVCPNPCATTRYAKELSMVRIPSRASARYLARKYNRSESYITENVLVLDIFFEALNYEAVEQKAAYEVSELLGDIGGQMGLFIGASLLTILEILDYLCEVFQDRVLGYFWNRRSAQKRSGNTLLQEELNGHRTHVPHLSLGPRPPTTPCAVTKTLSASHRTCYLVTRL
The assay is described as follows: cell-based. The following applies: CHO, read-out: whole-cell patch clamp in transfected CHO cells; potentiation of the sustained c. (In patch-clamp work, channel activity is measured electrically.)

The target in assay [2] is T2, ASIC1a (Rattus norvegicus, UniProt P55926).
T2 construct: gene Asic1
T2 sequence (P55926 1-526): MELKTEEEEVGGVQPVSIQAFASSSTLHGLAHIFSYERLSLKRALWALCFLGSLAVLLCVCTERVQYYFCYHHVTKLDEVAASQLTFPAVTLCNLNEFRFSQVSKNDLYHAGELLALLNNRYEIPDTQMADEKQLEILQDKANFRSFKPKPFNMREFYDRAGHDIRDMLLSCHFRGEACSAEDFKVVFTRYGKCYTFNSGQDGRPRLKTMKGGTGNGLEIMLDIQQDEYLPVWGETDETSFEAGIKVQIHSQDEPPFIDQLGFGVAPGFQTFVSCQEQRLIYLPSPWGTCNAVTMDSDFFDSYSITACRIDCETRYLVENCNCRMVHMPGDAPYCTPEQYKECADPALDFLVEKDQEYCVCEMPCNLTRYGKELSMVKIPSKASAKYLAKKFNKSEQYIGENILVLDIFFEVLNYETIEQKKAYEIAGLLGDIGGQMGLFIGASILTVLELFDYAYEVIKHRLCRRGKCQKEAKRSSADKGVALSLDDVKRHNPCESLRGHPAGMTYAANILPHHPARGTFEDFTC
Briefly: cell-based. To be noted: CHO, read-out: whole-cell patch clamp in transfected CHO cells; 10 mM, voltage-dependent inhibi.

Assay [3] deals with T2, ASIC1a. The assay is described as follows: whole-cell patch clamp in transfected CHO cells; […], pH […], Idrug/Icontrol = […]. It is filed as cell-based. The following applies: pH 6.5, read-out: whole-cell patch clamp in transfected CHO cells, 5 mM, pH 6.5, Idrug/Icontrol =.
Assay [4] has as its target T3, ASIC2a (Rattus norvegicus, UniProt Q62962).
T3 construct: gene Asic2
T3 sequence (Q62962 1-512): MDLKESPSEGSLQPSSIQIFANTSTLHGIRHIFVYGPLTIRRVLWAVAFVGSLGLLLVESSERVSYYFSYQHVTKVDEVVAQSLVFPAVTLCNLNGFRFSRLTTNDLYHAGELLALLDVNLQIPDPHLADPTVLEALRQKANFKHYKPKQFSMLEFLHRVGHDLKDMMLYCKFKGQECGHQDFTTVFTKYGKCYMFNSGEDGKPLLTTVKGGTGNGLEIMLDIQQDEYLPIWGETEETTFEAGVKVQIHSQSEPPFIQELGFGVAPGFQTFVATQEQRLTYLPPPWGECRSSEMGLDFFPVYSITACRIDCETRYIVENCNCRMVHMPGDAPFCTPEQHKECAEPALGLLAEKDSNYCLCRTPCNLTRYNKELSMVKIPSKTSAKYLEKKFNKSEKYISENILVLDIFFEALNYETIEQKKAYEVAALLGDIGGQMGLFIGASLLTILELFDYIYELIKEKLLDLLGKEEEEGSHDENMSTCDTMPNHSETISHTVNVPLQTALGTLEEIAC
Briefly: whole-cell patch clamp in transfected CHO cells; […], pH […], peak Idrug/Icontrol = […]. It counts as cell-based. To be noted: pH 5, read-out: whole-cell patch clamp in transfected CHO cells, 5 mM, pH 5.0, peak Idrug/Icontr.

With `CCCC[N+](CCCC)(CCCC)CCCC` [TBA, tetrabutylammonium], the activity at 1000 µM in assay [1] was found to be 112 ± 8%.

With `CC[N+](CC)(CC)CC` [TEA, tetraethylammonium], the activity at 10000 µM in assay [2] is 70 ± 13%. As for `CCCCC[N+](CCCCC)(CCCCC)CCCCC` [TPtA, tetrapentylammonium], the remaining activity at 5000 µM in assay [3] was found to be 41 ± 6%. Besides, the activity at 5000 µM in assay [4] is 71 ± 18%.
